No end group written: not given here.
What was measured:
Experiment in all cases: biochemical
DR1 (DRB1*0101) = DR1 (DRB1*0101) (Homo sapiens, UniProt P01903+P01911, A100R/D57E/F55L/F60I/F76Y/I96L/L162R/M171V/P40L/Q125E/R42F/V115G/Y59C); assay type: binding
DRB1*0301 = DRB1*0301 (Homo sapiens, UniProt P01903+P01911, A100K/A102G/A103R/A169T/F55Y/I96L/K41T/L162R/M171V/P40S/Q125H/Q178H/Q39Y/R42S/S66N/T106N/T262R/W38E/Y61H); assay type: binding
DRB1*1201 = DRB1*1201 (Homo sapiens, UniProt P01903+P01911, A100R/A169T/D57E/D86V/F55L/H45Y/K41T/L162R/M171V/P40S/Q125H/Q178H/Q39Y/Q99D/R42G/S66L/T262R/V114A/V67L/W38E/Y59H/Y61H/Y89S); assay type: binding
DRB1*1101 = DRB1*1101 (Homo sapiens, UniProt P01903+P01911, A100R/A169T/A87E/I96F/K41T/L162R/M171V/P40S/Q125H/Q178H/Q39Y/Q99D/R42S/S66Y/T262R/V115G/W38E); conditions: Binding affinity DRB1 *1101
Sequence of DRB1*1101 (P01903 26-254 limits assumed, other chains not shown): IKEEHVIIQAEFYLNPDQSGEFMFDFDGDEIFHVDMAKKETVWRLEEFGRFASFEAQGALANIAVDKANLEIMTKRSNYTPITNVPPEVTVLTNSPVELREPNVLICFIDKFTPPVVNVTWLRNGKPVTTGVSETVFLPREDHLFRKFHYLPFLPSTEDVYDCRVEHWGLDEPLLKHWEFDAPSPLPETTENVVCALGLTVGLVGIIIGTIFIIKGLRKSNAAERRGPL

DRB5*0101 = DRB5*0101 (Homo sapiens, UniProt P01903+Q30154); conditions: Binding affinity DRB5 *0101
DRB4*0101 = DRB4*0101 (Homo sapiens, UniProt P01903+P13762, G164S); assay type: binding
DRB1*1501 = DRB1*1501 (Homo sapiens, UniProt P01903+P01911); assay type: binding
DR7 (DRB1*0701) = DR7 (DRB1*0701) (Homo sapiens, UniProt P01903+P01911, A100R/A102G/A103Q/D57E/D86V/E43K/F76Y/K127E/L162R/M171V/P40G/Q125H/Q99D/R33Q/R42Y/R54Q/S133A/S66F/T210M/V115G/Y107V/Y59L/Y89S); assay type: binding
DRB1*0802 = DRB1*0802 (Homo sapiens, UniProt P01903+P01911, A100R/A103L/A169T/F76Y/H45Y/I96F/K41T/L162R/M171V/P40S/Q125H/Q178H/Q39Y/Q99D/R218S/R42G/S66Y/V115G/W38E); assay type: binding
DRB1*0405 = DRB1*0405 (Homo sapiens, UniProt P01903+P01911, A100R/A169T/D86S/F76Y/I96L/K127E/L162R/M171V/N62H/P40V/Q125Y/R42H/S133A/S149N/S66Y/V115G/V209L/W38E); assay type: binding
DR4w4 (DRB1*0401) = DR4w4 (DRB1*0401) (Homo sapiens, UniProt P01903+P01911, A100K/A169T/F76Y/I96L/K127E/L162R/M171V/N62H/P40V/Q125Y/R42H/S133A/S149N/S66Y/V115G/V209L/W38E); assay type: binding
DRB1*0901 = DRB1*0901 (Homo sapiens, UniProt P01903+P01911, A100R/A103E/D57H/D86V/F55Y/F60I/F76Y/I96F/K127E/L162R/M171V/P40D/Q125H/Q99R/R33Q/R42F/S133A/S66N/T210M/V115G/W38K/Y107V/Y59G/Y89S); assay type: binding
DRB1*1302 = DRB1*1302 (Homo sapiens, UniProt P01903+P01911, A100E/A169T/K41T/L162R/M171V/P40S/Q125H/Q178H/Q39Y/Q99D/R42S/S66N/T262R/V115G/W38E/Y61H); assay type: binding
Sequence of DRB1*1302 (P01903 26-254 limits assumed, other chains not shown): as above

Sequence of DRB1*0301 (P01903 26-254 limits assumed, other chains not shown): as above

For KTLIKPATLYAHIQC [Peptide 89.0083], the IC50 (DR1 (DRB1*0101)) was 60 nM, the IC50 (DRB1*0301) was 1220 nM and the IC50 (DRB1*1201) was 422 nM. The IC50 (DRB1*1101) was 35 nM, the IC50 (DRB5*0101) was 5230 nM and the IC50 (DRB4*0101) was 51 nM. The IC50 (DRB1*1501) was 654 nM, the IC50 (DR7 (DRB1*0701)) was 308 nM and the IC50 (DRB1*0802) was 231 nM. It also gave an IC50 (DRB1*0405) of 841 nM.
Work on AKALQAIELQMMLET [Peptide 89.0171] yielded an IC50 (DR1 (DRB1*0101)) of 16 nM, an IC50 (DRB1*0301) of 1460 nM and an IC50 (DRB1*1201) of 243 nM. It also gave an IC50 (DRB1*1101) of 2400 nM, an IC50 (DR4w4 (DRB1*0401)) of 78 nM and an IC50 (DRB5*0101) of 284 nM. It also gave an IC50 (DRB4*0101) of 2550 nM, an IC50 (DRB1*1501) of 8480 nM and an IC50 (DR7 (DRB1*0701)) of 51 nM. For the same sequence, the IC50 (DRB1*0802) was over 20000 nM, the IC50 (DRB1*0901) was 84 nM and the IC50 (DRB1*0405) was 798 nM.
Work on TGWFEVEAVIERRTG [Peptide 90.0075] yielded an IC50 (DR1 (DRB1*0101)) of 17100 nM, an IC50 (DRB1*0301) of 17 nM and an IC50 (DRB1*1201) of over 20000 nM. For the same sequence, the IC50 (DRB5*0101) was 362 nM, the IC50 (DRB4*0101) was over 20000 nM and the IC50 (DRB1*1501) was over 20000 nM. It also gave an IC50 (DR7 (DRB1*0701)) of 4930 nM, an IC50 (DRB1*0901) of over 20000 nM and an IC50 (DRB1*1302) of over 20000 nM. It also gave an IC50 (DRB1*0405) of 6110 nM.
GKSYFGMSLIQFLKG [Peptide 89.0075] was tested, and the IC50 (DR1 (DRB1*0101)) was 14 nM, the IC50 (DRB1*0301) was 8830 nM and the IC50 (DRB1*1201) was 499 nM. For the same sequence, the IC50 (DRB1*1101) was 2960 nM, the IC50 (DR4w4 (DRB1*0401)) was 456 nM and the IC50 (DRB5*0101) was 411 nM. The IC50 (DRB4*0101) was 372 nM, the IC50 (DRB1*0802) was 1560 nM and the IC50 (DRB1*0901) was 73 nM. For the same sequence, the IC50 (DRB1*0405) was 1310 nM.
With HKAIELQMALKGLAQ [Peptide 90.0004] the IC50 (DR1 (DRB1*0101)) was 2.1 nM, the IC50 (DRB1*0301) was 32 nM and the IC50 (DRB1*1201) was 293 nM. For the same sequence, the IC50 (DRB1*1101) was 10 nM, the IC50 (DR4w4 (DRB1*0401)) was 6.7 nM and the IC50 (DRB5*0101) was 57 nM. For the same sequence, the IC50 (DRB4*0101) was 1 nM, the IC50 (DRB1*1501) was 6580 nM and the IC50 (DRB1*0802) was 38 nM. The IC50 (DRB1*0405) was 3310 nM.
Work on VTVFTFPHAFPFDKN [Peptide 89.0092] yielded an IC50 (DRB1*0301) of over 20000 nM, an IC50 (DRB1*1201) of 131 nM and an IC50 (DRB5*0101) of 226 nM. It also gave an IC50 (DRB4*0101) of 1500 nM, an IC50 (DRB1*1501) of 63 nM and an IC50 (DR7 (DRB1*0701)) of 5.5 nM. It also gave an IC50 (DRB1*0901) of 33 nM, an IC50 (DRB1*1302) of over 20000 nM and an IC50 (DRB1*0405) of 10200 nM.
WKLIRMECAIMYTAR [Peptide 90.0245] gave an IC50 (DRB1*0301) of 203 nM, an IC50 (DRB1*1201) of 195 nM and an IC50 (DR4w4 (DRB1*0401)) of 328 nM. For the same sequence, the IC50 (DRB5*0101) was 1240 nM, the IC50 (DRB4*0101) was 27 nM and the IC50 (DRB1*1501) was 2110 nM. The IC50 (DR7 (DRB1*0701)) was 4610 nM, the IC50 (DRB1*0802) was 9170 nM and the IC50 (DRB1*0901) was 4870 nM. The IC50 (DRB1*0405) was 768 nM.
Sequence PEWIQRLTIIQHGID [Peptide 89.0031] has an IC50 (DR1 (DRB1*0101)) of 879 nM, an IC50 (DRB1*0301) of 4380 nM and an IC50 (DRB1*1201) of 527 nM. The IC50 (DRB1*1101) was 596 nM, the IC50 (DRB5*0101) was 240 nM and the IC50 (DRB4*0101) was 3.3 nM. It also gave an IC50 (DRB1*1501) of 3420 nM, an IC50 (DRB1*0802) of 187 nM and an IC50 (DRB1*0901) of 4510 nM. It also gave an IC50 (DRB1*1302) of 558 nM and an IC50 (DRB1*0405) of 131 nM.
AFQVIELQMALETLN [Peptide 90.0024] was tested, and the IC50 (DR1 (DRB1*0101)) was 29 nM, the IC50 (DRB1*0301) was 1280 nM and the IC50 (DRB1*1201) was 466 nM. It also gave an IC50 (DRB1*1101) of 3340 nM, an IC50 (DRB5*0101) of over 20000 nM and an IC50 (DRB4*0101) of 11 nM. The IC50 (DRB1*1501) was 378 nM, the IC50 (DRB1*0802) was 4950 nM and the IC50 (DRB1*1302) was 89 nM. For the same sequence, the IC50 (DRB1*0405) was 2100 nM.
In the case of IIHLKGDANILKCLR [Peptide 90.0197], the IC50 (DR1 (DRB1*0101)) is reported as 69 nM, the IC50 (DRB1*0301) is reported as 26 nM and the IC50 (DRB1*1201) is reported as 5030 nM. The IC50 (DR4w4 (DRB1*0401)) was 64 nM, the IC50 (DRB5*0101) was 2460 nM and the IC50 (DRB4*0101) was 713 nM. It also gave an IC50 (DR7 (DRB1*0701)) of 3050 nM, an IC50 (DRB1*0802) of 2990 nM and an IC50 (DRB1*0901) of 14100 nM. It also gave an IC50 (DRB1*1302) of 66 nM and an IC50 (DRB1*0405) of 6500 nM.
Sequence VDFIVNDNDYLTQAE [Peptide 90.0031] has an IC50 (DR1 (DRB1*0101)) of 2830 nM, an IC50 (DRB1*0301) of 42 nM and an IC50 (DRB1*1201) of 17100 nM. It also gave an IC50 (DRB1*1101) of over 20000 nM, an IC50 (DRB5*0101) of over 20000 nM and an IC50 (DRB4*0101) of 718 nM. For the same sequence, the IC50 (DRB1*1501) was over 20000 nM, the IC50 (DR7 (DRB1*0701)) was 7280 nM and the IC50 (DRB1*0802) was over 20000 nM. For the same sequence, the IC50 (DRB1*0901) was over 20000 nM, the IC50 (DRB1*1302) was 204 nM and the IC50 (DRB1*0405) was over 20000 nM.
